According to US20020137655A1, “Use of haloperoxidase, peroxide and carboxylic acid” (Novozymes A/S, priority 2000, published 2002):

Tested on: Escherichia coli (DSM 1576)
Experiment: Antibacterial activity of haloperoxidase, hydrogen peroxide and a buffer compound against Escherichia coli cells (conductance measurement, Malthus)
Type: cell-based
Conditions: for Log CFU/ml (reduction in number of living bacterial cells): buffer 50 mM, 40° C., 20 minutes, approx. 10^6 CFU/ml; for bactericidal activity: carboxylic acid as buffer with haloperoxidase and hydrogen peroxide (Table 1), log CFU/ml reduction of more than 6 units corresponds to 100%
Procedure: Antimicrobial activity may be measured in terms of the number of log reductions. The term “log reduction” is defined as a logarithmic reduction of the number of living cells, e.g. 1 log reduction corresponds to a reduction in living cell number of Escherichia coli DSM1576 or Enterococcus faecalis DSM2570 from Y×10^X CFU/M (CFU: […] The number of living bacteria are to be determined as the number of E. coli or E. faecalis, respectively, which can grow on Tryptone Soya Agar plates at 30° C. The antibacterial activity of a system composed of a haloperoxidase and hydrogen peroxide were tested in a variety of buffers (including both carboxylic acids and other buffer compounds) and pH against Escherichia coli (DSM 1576). The E. coli cells were grown in Brain Heart Infusion broth (BHI) until stationary growth phase (30° C., 20 hours). […] Subsequently the solution was incubated in a 96-well MicroWell plate (Nunc A/S, Denmark) at 40° C. in 20 minutes. […] The detection times measured by the Malthus instrument were converted to CFU/ml by a calibration curve.

[1] = pH 7, rCvP 0.1 mg/L, H2O2 0.25 mM
[2] = pH 5, rCvP 0.5 mg/L, H2O2 0.5 mM
[3] = pH 6, rCvP 0.5 mg/L, H2O2 0.5 mM

| Molecule | Log CFU/ml (reduction in number of living bacterial cells) [1] | Log CFU/ml (reduction in number of living bacterial cells) (pH 8, rCvP 1 mg/L, H2O2 1 mM) | Log CFU/ml (reduction in number of living bacterial cells) [2] | bactericidal activity | Log CFU/ml (reduction in number of living bacterial cells) [3] |
| --- | --- | --- | --- | --- | --- |
| Tris(hydroxymethyl)amino-methane [Tris(hydroxymethyl)amino-methane (TRIS)] | 0.3 Log CFU/ml | 0.5 Log CFU/ml |  |  |  |
| O=C(O)CC(O)(CC(=O)O)C(=O)O [Citric acid] |  |  | 6.4 Log CFU/ml | 100% |  |
| O=P([O-])(O)O.[K+] [KH2PO4] | 0.3 Log CFU/ml | 0.4 Log CFU/ml |  |  |  |
| O=S(=O)(O)CCN1CCN(CCO)CC1 [HEPES] | 0.7 Log CFU/ml | 0.6 Log CFU/ml |  |  |  |
| CC(=O)O [Acetic acid] |  |  | 6.0 Log CFU/ml | 100% |  |
| CC(C)(CC(=O)O)CC(=O)O [Dimethylglutaric acid (DMG), Dimethylglutaric acid] | 7.3 Log CFU/ml |  |  | 100% | 6.7 Log CFU/ml |
| O=S(=O)(O)CCN1CCOCC1 [2-(N-morpholino) ethanesulfonic acid] |  |  |  |  | 0.6 Log CFU/ml |
